Test results from ChEMBL document CHEMBL1155992, “Bioisosteric replacement of the hydrazide pharmacophore of the cannabinoid-1 receptor antagonist SR141716A. Part I: potent, orally-active 1,4-disubstituted imidazoles” (Bioorg Med Chem Lett, 2009).

How the values were obtained:
[1] = molecular target: Cannabinoid receptor 1 (Rattus norvegicus, UniProt P20272); test: Displacement of [3H]SR141716A from rat brain CB1 receptor
[2] = molecular target: Cannabinoid receptor 1 (Homo sapiens, UniProt P21554); test: Antagonist activity at human CB1 receptor transfected in CHO-K1cells by GTPgamma[35S] binding assay; assay type: functional, cell-based, CHO-K1
Chain of Cannabinoid receptor 1 (Homo sapiens, UniProt P21554) (P21554 whole entry): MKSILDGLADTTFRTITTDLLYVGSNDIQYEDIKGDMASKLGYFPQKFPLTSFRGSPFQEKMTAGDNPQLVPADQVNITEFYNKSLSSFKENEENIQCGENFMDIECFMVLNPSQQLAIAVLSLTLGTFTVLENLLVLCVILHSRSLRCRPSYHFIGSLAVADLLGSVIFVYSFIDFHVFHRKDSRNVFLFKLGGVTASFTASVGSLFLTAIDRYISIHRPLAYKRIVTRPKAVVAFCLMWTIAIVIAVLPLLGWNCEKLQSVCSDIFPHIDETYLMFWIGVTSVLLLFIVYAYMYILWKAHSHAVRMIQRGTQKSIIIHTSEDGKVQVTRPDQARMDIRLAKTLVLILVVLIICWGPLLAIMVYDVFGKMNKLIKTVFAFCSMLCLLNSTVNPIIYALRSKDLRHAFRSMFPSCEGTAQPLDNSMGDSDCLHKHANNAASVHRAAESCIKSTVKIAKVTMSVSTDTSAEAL

[3] = species: Homo sapiens; test: Selectivity index, ratio of Ki for human CB2 receptor to Ki for human CB1 receptor
[4] = Intrinsic clearance in human liver microsomes; assay type: ADME, Microsome
[5] = Half life in rat at 2 mg/kg, iv; assay type: ADME, organism-based; set-up: dose 2 mg/kg, route intravenous; conditions: in vivo
[6] = Oral bioavailability in rat at 5 mg/kg; assay type: ADME, organism-based; conditions: in vivo
[7] = system: Mus musculus; test: Effect on hypothermic activity in CP-55940-induced ICR mouse assessed as reduction in body temperature at 10 mg/kg, ip measured after 65 mins of CP-55940 challenge by tetrad assay; assay type: functional; set-up: scale not given: the % may be the effect or the level left; conditions: route intraperitoneal
[8] = system: Mus musculus; test: Analgesic activity in CP-55940-induced ICR mouse assessed as reduction in latency to jump, kick, lick, flick paw at 10 mg/kg, ip by hotplate assay; assay type: functional; set-up: scale not given: the % may be the effect or the level left; conditions: route intraperitoneal
[9] = Volume of distribution in rat at 2 mg/kg, iv; assay type: ADME, organism-based; set-up: dose 2 mg/kg, route intravenous; conditions: in vivo
[10] = molecular target: T1, Cytochrome P450 1A2 (Homo sapiens, UniProt P05177); test: Inhibition of CYP1A2; assay type: ADME
T1 sequence (P05177 whole entry): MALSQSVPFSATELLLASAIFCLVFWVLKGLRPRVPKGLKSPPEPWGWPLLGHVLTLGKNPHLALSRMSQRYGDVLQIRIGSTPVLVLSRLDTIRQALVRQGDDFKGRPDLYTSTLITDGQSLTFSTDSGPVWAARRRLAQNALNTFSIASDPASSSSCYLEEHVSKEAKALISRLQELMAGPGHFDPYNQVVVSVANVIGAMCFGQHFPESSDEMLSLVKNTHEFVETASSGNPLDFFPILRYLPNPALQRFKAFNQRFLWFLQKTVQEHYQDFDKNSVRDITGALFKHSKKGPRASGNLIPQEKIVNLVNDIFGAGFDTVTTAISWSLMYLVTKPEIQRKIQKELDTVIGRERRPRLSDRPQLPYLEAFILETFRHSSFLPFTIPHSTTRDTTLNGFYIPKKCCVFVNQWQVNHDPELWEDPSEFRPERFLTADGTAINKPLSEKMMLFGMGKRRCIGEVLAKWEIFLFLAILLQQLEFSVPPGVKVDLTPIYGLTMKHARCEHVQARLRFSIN

[11] = system: Rattus norvegicus; test: Antiobesity activity in overnight fasted Sprague-Dawley rat assessed as reduction in food intake in at 3 mg/kg, po; assay type: functional; set-up: scale not given: the % may be the effect or the level left
[12] = molecular target: Cytochrome P450 2D6 (Homo sapiens, UniProt P10635); test: Inhibition of CYP2D6; assay type: ADME
Chain of Cytochrome P450 2D6 (P10635 whole entry): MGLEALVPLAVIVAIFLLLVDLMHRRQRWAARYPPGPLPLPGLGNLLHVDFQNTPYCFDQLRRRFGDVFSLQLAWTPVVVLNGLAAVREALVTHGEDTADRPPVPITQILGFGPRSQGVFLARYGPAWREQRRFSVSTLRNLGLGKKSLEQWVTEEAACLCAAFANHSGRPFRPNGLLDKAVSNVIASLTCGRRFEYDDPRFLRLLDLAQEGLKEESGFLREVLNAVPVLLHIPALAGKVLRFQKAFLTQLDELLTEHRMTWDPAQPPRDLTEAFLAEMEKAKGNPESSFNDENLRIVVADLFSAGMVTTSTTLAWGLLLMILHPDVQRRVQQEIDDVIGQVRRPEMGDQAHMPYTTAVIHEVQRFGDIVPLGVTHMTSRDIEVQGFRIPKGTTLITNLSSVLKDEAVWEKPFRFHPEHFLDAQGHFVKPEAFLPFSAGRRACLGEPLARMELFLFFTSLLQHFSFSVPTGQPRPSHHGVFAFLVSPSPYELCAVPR

[13] = molecular target: Cytochrome P450 2C19 (Homo sapiens, UniProt P33261); test: Inhibition of CYP2C19; assay type: ADME
Chain of Cytochrome P450 2C19 (P33261 whole entry): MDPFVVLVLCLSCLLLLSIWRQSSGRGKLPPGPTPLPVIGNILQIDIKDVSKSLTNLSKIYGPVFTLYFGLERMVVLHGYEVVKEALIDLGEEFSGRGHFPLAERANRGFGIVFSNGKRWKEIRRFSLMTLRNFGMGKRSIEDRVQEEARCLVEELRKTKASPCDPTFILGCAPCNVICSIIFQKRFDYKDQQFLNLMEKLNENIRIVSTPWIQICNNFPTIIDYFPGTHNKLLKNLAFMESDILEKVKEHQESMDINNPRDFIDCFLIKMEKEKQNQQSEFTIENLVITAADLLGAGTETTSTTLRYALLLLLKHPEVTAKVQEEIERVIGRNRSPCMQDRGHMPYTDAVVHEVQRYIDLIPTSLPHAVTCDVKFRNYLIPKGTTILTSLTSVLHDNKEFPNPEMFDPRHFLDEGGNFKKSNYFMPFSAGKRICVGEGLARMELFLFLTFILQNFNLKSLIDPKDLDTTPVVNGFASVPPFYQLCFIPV

[14] = molecular target: Cytochrome P450 3A4 (Homo sapiens, UniProt P08684); test: Inhibition of CYP3A4; assay type: ADME
Chain of Cytochrome P450 3A4 (P08684 whole entry): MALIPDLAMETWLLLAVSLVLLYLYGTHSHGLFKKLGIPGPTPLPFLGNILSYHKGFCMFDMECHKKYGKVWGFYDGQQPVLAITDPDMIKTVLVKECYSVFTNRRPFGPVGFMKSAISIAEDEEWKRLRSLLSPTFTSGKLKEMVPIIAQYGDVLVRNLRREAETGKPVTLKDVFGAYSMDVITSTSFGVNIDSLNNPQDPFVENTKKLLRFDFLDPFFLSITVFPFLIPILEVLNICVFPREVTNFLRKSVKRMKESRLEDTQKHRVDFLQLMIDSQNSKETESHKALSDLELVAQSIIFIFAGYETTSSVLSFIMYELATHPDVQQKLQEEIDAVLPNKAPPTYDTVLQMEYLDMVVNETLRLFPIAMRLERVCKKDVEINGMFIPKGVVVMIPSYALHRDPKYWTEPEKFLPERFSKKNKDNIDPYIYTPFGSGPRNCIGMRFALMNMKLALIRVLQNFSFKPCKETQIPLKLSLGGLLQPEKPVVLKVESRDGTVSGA

[15] = system: Rattus norvegicus; test: Clearance in rat at 2 mg/kg, iv; assay type: ADME, organism-based; set-up: dose 2 mg/kg, route intravenous; conditions: in vivo
[16] = molecular target: Cytochrome P450 2C9 (Homo sapiens, UniProt P11712); test: Inhibition of CYP2C9; assay type: ADME
Chain of Cytochrome P450 2C9 (P11712 whole entry): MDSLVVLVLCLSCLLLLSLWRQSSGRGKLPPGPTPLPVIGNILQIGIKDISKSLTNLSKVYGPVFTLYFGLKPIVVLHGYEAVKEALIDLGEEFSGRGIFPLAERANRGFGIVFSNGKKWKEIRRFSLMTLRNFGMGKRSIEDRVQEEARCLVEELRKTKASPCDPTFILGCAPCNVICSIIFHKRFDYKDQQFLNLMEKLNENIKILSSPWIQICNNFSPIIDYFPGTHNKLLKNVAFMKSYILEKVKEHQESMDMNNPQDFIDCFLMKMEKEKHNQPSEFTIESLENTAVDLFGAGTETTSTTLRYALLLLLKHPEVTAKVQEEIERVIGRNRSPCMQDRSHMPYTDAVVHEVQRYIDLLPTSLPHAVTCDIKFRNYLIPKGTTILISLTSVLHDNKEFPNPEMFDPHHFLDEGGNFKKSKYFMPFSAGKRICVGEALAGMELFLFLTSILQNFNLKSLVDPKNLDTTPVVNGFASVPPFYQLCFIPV

[17] = system: Rattus norvegicus; test: Antiobesity activity in overnight fasted Sprague-Dawley rat assessed as reduction in food intake in at 10 mg/kg, po; assay type: functional; set-up: scale not given: the % may be the effect or the level left

Chain of Cannabinoid receptor 1 (Rattus norvegicus, UniProt P20272) (P20272 whole entry): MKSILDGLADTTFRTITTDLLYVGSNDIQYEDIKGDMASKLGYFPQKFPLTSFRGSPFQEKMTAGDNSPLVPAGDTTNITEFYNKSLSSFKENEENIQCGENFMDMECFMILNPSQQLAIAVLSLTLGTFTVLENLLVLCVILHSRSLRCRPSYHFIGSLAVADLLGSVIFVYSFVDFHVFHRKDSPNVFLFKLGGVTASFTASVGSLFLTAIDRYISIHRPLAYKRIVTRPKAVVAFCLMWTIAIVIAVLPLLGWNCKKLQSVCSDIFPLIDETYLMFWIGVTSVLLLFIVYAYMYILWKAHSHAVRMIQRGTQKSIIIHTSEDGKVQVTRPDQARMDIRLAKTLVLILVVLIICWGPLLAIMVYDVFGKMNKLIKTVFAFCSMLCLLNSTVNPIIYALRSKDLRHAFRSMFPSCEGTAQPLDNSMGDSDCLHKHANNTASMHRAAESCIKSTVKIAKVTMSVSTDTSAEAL

| Ki [1] [nM] | Ki [2] [nM] | Ratio Ki [3] | Compound | further results |
| --- | --- | --- | --- | --- |
| 8.6 | 4.7 | > 100 | Cc1c(-c2cn(C3CCCCC3)cn2)nn(-c2ccc(Cl)cc2Cl)c1-c1ccc(Cl)cc1 |  |
| 10 | 5 | > 100 | Cc1c(-c2cn(C3CCC3)cn2)nn(-c2ccc(Cl)cc2Cl)c1-c1ccc(Cl)cc1 |  |
| 14 |  | > 100 | Cc1c(-c2cn(Cc3ccccc3)cn2)nn(-c2ccc(Cl)cc2Cl)c1-c1ccc(Cl)cc1 |  |
| 19 | 3.8 | > 100 | Cc1c(-c2cn(-c3ccccc3)cn2)nn(-c2ccccc2Cl)c1-c1ccc(Cl)cc1 |  |
| 1.8 | 0.1 | > 100 | Cc1c(-c2cn(C(C)(C)c3ccccc3)cn2)nn(-c2ccc(Cl)cc2Cl)c1-c1ccc(Cl)cc1 |  |
| 20 |  | > 100 | CCn1cnc(-c2nn(-c3ccc(Cl)cc3Cl)c(-c3ccc(Cl)cc3)c2C)c1 |  |
| 19 |  | > 100 | Cc1c(-c2ncn(C(C)C)c2CO)nn(-c2ccc(Cl)cc2Cl)c1-c1ccc(Cl)cc1 |  |
| 38 |  | > 100 | CCc1c(-c2nn(-c3ccc(Cl)cc3Cl)c(-c3ccc(Cl)cc3)c2C)ncn1C(C)C |  |
| 7.2 | 9.5 | > 100 | Cc1c(-c2cnc(C(C)C)[nH]2)nn(-c2ccc(Cl)cc2Cl)c1-c1ccc(Cl)cc1 | CLint scaled [4]: 42.5 mL/min/kg |
| 9.5 | 5.2 | > 100 | Cc1c(-c2ncc(C(C)C)[nH]2)nn(-c2ccc(Cl)cc2Cl)c1-c1ccc(Cl)cc1 | CLint scaled [4]: 42.5 mL/min/kg |
| 25 |  | > 100 | Cc1c(-c2cn(C3CCOCC3)cn2)nn(-c2ccc(Cl)cc2Cl)c1-c1ccc(Cl)cc1 | CLint scaled [4]: < 7 mL/min/kg |
| 31 |  | > 100 | Cc1c(-c2nc[nH]c2C(C)C)nn(-c2ccccc2Cl)c1-c1ccc(Cl)cc1 |  |
| 7.4 | 7.9 | > 100 | Cc1c(-c2cn(C3CC3)cn2)nn(-c2ccccc2Cl)c1-c1ccc(Cl)cc1 |  |
| 14 |  | > 100 | Cc1c(-c2cn(C(C)(C)C)cn2)nn(-c2ccc(Cl)cc2Cl)c1-c1ccc(Cl)cc1 |  |
| 4.9 | 9 | > 100 | Cc1c(-c2cn(C(C)C)cn2)nn(-c2ccc(Cl)cc2Cl)c1-c1ccc(Cl)cc1 | CLint scaled [4]: 14 mL/min/kg |

| Compound | Ki [1] [nM] | Ki [2] [nM] | Ratio Ki [3] | further results |
| --- | --- | --- | --- | --- |
| Cc1c(-c2cn(C(C)(C)c3ccccc3)cn2)nn(-c2ccccc2Cl)c1-c1ccc(Cl)cc1 | 1.1 | 0.1 | > 100 |  |
| Cc1c(-c2ncn(C(C)C)c2C)nn(-c2ccc(Cl)cc2Cl)c1-c1ccc(Cl)cc1 | 5.7 | 9 | > 100 |  |
| Cc1c(-c2cn(C(C)C)cn2)nn(-c2ccccc2Cl)c1-c1ccc(Cl)cc1 | 5.3 | 7.6 | > 100 | half-life [5]: 1.5 h; bioavailability [6]: 42%; Activity [7]: 33%; Activity [8]: 56%; Vd [9]: 2.5 L/kg; IC50 [10]: > 10000 nM; Activity [11]: -31%; IC50 [12]: > 10000 nM; IC50 [13]: > 10000 nM; IC50 [14]: > 10000 nM; clearance [15]: 21 mL/min/kg; IC50 [16]: > 10000 nM; Activity [17]: 44% |
